For 52 compounds, IC50 results are on record in patent US20240425496A1, “AZETIDINYL PYRIMIDINES AND USES THEREOF” (Aerie Pharmaceuticals, Inc., priority 2021, published 2024).

Each structure is given as a SMILES string. A value given as a limit tells only on which side of the number the result lay.

In assay [1] the target is JAK1 (Homo sapiens (Human), UniProt P23458). Nature of the assay: JAK kinase assay (KINASE-GLO luminescent), JAK1 enzyme. The format is biochemical. Particulars: JAK1 enzyme 10 nM, Abl peptide substrate. A digest of the protocol: (§1)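 Kinase-Glo luminescence measures ATP remaining after 75 min at room temperature; ATP 2 μM in 4× stock. 11-point 1:5 dilutions, 2.5% DMSO final. Percent of DMSO control per concentration, IC50 by 4-parameter logistic fit.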
Background: Kinase-Glo reads ATP consumption through a luciferase reaction.

Assay [2] has as its target TYK2 (Homo sapiens (Human), UniProt P29597). Nature of the assay: JAK kinase assay (KINASE-GLO luminescent), TYK2 enzyme. Format: biochemical. Particulars: TYK2 enzyme 10 nM, Abl peptide substrate. Summed up:
as §1

TYK2, sequence (P29597 whole entry, species assumed): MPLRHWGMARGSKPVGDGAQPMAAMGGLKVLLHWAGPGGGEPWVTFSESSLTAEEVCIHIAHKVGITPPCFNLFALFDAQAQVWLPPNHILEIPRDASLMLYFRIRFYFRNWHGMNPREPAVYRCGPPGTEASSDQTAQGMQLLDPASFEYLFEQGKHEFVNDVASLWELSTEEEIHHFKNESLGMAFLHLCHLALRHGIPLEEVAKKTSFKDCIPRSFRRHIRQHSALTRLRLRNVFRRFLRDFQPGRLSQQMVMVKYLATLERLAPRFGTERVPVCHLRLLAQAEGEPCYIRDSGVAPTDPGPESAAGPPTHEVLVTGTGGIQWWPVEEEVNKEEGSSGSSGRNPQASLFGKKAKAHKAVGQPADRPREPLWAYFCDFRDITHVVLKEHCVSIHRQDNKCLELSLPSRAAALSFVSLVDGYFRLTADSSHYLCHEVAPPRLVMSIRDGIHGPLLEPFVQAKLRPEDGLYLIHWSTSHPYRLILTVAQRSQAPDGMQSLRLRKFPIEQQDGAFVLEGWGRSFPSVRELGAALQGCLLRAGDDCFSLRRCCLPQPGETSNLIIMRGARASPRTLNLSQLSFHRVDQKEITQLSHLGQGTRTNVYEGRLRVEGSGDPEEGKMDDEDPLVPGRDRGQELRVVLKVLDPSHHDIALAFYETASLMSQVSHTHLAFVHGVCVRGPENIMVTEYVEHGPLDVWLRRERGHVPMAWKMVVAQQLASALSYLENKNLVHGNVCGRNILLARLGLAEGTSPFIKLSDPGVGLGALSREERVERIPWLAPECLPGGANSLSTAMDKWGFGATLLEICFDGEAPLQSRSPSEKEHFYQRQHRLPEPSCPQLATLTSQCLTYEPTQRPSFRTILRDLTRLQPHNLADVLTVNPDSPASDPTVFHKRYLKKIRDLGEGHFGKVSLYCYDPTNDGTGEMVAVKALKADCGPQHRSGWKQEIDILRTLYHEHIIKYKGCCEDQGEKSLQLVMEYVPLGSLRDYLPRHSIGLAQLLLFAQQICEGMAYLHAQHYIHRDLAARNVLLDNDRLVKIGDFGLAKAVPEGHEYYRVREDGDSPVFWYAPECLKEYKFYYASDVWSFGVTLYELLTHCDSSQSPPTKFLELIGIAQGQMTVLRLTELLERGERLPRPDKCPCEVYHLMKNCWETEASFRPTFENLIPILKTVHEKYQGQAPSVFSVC
JAK1, sequence (P23458 whole entry, species assumed): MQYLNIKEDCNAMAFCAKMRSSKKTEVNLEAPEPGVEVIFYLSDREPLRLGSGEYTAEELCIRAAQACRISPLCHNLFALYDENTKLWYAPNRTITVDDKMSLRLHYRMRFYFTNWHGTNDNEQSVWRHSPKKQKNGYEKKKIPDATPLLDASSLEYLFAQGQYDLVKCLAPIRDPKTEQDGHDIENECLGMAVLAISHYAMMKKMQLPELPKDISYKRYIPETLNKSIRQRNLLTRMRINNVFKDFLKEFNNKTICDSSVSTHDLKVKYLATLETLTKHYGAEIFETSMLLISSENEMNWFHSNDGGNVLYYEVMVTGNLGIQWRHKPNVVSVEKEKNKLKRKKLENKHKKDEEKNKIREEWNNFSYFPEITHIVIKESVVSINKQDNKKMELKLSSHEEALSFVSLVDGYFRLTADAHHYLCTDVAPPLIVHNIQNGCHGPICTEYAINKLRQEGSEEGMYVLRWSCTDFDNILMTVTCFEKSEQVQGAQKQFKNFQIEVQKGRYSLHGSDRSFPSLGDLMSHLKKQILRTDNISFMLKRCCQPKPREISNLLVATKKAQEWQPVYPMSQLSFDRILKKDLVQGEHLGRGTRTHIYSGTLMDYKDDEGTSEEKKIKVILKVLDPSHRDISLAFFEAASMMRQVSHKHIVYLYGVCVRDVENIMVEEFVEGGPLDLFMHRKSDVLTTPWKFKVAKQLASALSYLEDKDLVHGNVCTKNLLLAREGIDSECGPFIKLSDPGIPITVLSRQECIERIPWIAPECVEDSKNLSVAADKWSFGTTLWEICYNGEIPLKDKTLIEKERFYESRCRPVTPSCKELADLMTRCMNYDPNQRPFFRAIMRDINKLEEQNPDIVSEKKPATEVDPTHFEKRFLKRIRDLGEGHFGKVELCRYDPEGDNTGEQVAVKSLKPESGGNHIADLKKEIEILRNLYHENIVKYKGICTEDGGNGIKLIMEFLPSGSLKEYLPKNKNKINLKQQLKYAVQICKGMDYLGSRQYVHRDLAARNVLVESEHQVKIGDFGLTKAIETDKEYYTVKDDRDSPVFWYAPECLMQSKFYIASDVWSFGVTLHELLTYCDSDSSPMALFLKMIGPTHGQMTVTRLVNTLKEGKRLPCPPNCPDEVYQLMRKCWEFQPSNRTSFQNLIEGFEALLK

One may read the IC50 as the concentration needed to halve the response being measured. `Cc1cnc(Nc2cnn(C)c2)nc1N1CC(CC#N)(N2CCN3CC(C)(C)C[C@H]3C2)C1` [E173a]: the IC50 in assay [1] and in assay [2] was less than 10 nM each time.
Regarding `Cc1cnc(Nc2cnn(C)c2)nc1N1CC(=CC#N)C1` [E174a], the IC50 in assay [1] was less than 100 nM; in assay [2], less than 200 nM.
As to `Cc1cnc(Nc2cnn(C)c2)nc1N1CC(O)(CF)C1` [E175-A], the figures for the concentration for half-maximal inhibition (IC50) in assay [1] and in assay [2] were less than 100 nM and less than 120 nM, respectively.
For `Cc1cnc(Nc2cnn(C)c2)nc1N1CC(O)(CC2CC2)C1` [E175-B], the IC50 in assay [1] and in assay [2] was less than 200 nM throughout.
On to `Cc1cnc(Nc2cnn(C3CC3)c2)nc1N1CC(CC#N)(N2CCN3C[C@H](F)C[C@H]3C2)C1` [E175-C], for which the IC50 in assay [1] and in assay [2] was less than 10 nM throughout.
With `COCCN1CCN(C2(CC#N)CN(c3nc(Nc4cnn(CCOC)c4)ncc3C)C2)CC1` [E175-D], the 50% inhibitory concentration (IC50) in assay [1] and in assay [2] was less than 120 nM each time.
Consider `COCCN1CCN(C2(CC#N)CN(c3nc(Nc4cnn(CCOC)c4)ncc3C)C2)CC1` [E175-E], for which the IC50 in assay [1] and in assay [2] was less than 200 nM each time.
Take `Cc1cnc(Nc2cnn(C)c2)nc1N1CC(CC#N)(N2CCN3C[C@H](C)C[C@H]3C2)C1` [E175a]: the IC50 in assay [1] and in assay [2] was less than 50 nM in each case.
`Cc1cnc(Nc2ccc(N3CCN(C)CC3)cc2)nc1N1CC(CC#N)(N(C)C2CC2)C1` [E213]: the half-maximal inhibitory concentration (IC50) in assay [1] is less than 50 nM; in assay [2] it was less than 10 nM.
As for `Cc1cnc(Nc2ccc3c(c2)CN(C)C3)nc1N1CC(CC(F)F)(C2CC2)C1` [E216-A], the IC50 in assay [1] and in assay [2] was less than 10 nM in each case.
As for `Cc1cnc(Nc2ccc(S(C)(=O)=O)cc2)nc1N1CC(CC(F)F)(C2CC2)C1` [E216-B], the concentration for half-maximal inhibition (IC50) in assay [1] and in assay [2] was less than 10 nM each time.
Turning to `Cc1cnc(Nc2ccc3c(c2)CN(C)C3)nc1N1CC(CC#N)(N(C)C2CC2)C1` [E216-C], the IC50 in assay [1] and in assay [2] was less than 10 nM throughout.
Consider `Cc1cnc(Nc2ccc3c(c2)CN(C)C3)nc1N1CC(CC#N)(N2CCC(F)CC2)C1` [E216-E], for which the 50% inhibitory concentration (IC50) in assay [1] and in assay [2] was less than 10 nM in each case.
On to `Cc1cnc(Nc2ccccc2)nc1N1CC(CC#N)(N2CCN3CCCC[C@H]3C2)C1` [E216-F], for which the results for the IC50 in assay [1] and in assay [2] were less than 20 nM and less than 10 nM, respectively.
For `Cc1cnc(Nc2ccc3c(c2)CN(C)C3)nc1N1CC(CC#N)(N2CCC3(CC2)COC3)C1` [E216-G], in that order: less than 10 nM and less than 10 nM.
For `Cc1cnc(Nc2ccc(N3CCOCC3)c(F)c2)nc1N1CC(CCC#N)C1` [E216-K], in that order: less than 50 nM and less than 10 nM.
Turning to `Cc1cnc(Nc2ccc(C3COC3)cc2)nc1N1CC(CC#N)(N2CCN(C)CC2)C1` [E216-L], the IC50 is less than 50 nM in assay [1] and less than 20 nM in assay [2].
The corresponding values for `Cc1cnc(Nc2ccccc2)nc1N1CC(CC#N)(N2CCN(C)CC2)C1` [E216-N] are less than 70 nM and less than 30 nM.
For `Cc1cnc(Nc2ccc3c(c2)B(O)OC3)nc1N1CC(CC#N)(N2CCN3C[C@H](F)C[C@H]3C2)C1` [E216-O], in that order: less than 120 nM and less than 30 nM.
As for `Cc1cnc(Nc2ccc(N3CCOCC3)nc2)nc1N1CC(CCC#N)C1` [E216-S], the 50% inhibitory concentration (IC50) in assay [1] and in assay [2] was less than 100 nM each time.
In the case of `Cc1cnc(Nc2cccnc2)nc1N1CC(CC#N)(N2CCN3CCCC[C@H]3C2)C1` [E216-T], the IC50 in assay [1] and in assay [2] was less than 50 nM in each case.
With `Cc1cnc(Nc2ccccc2)nc1N1CC(CC#N)(N2CCN(C)CC2)C1` [E216-V], the 50% inhibitory concentration (IC50) was less than 100 nM in assay [1] and less than 50 nM in assay [2].
Take `Cc1cnc(Nc2ccc3c(c2)CN(C)C3)nc1N1CC(CC#N)(N2CCN3C[C@H](F)C[C@H]3C2)C1` [E216]: the IC50 in assay [1] and in assay [2] was less than 10 nM each time.
For the compound `Cc1cnc(Nc2cnn(C)c2)nc1C1CC(C)(NC(=O)[C@@H]2CC2(F)F)C1` (some centres unmarked) [E279], the 50% inhibitory concentration (IC50) is less than 5 nM in assay [1] and less than 10 nM in assay [2].
On to `Cc1cc(Nc2ncc(C)c(N3CC(C)(CNC(=O)C4CN(C)C4)C3)n2)sn1` [E280], for which the IC50 in assay [1] and in assay [2] was less than 400 nM each time.
In the case of `Cc1cc(Nc2ncc(C)c(N3CC(CC#N)(NC(=O)Cc4cccnc4)C3)n2)sn1` [E281], the results for the 50% inhibitory concentration (IC50) in assay [1] and in assay [2] were less than 100 nM and less than 50 nM, respectively.
For the compound `Cc1cc(Nc2ncc(C)c(N3CC(C)(CNC(=O)C4CN(C(=O)OC(C)(C)C)CC4(F)F)C3)n2)sn1` (centres unmarked) [E283], the IC50 in assay [1] and in assay [2] was less than 100 nM in each case.
For the compound `Cc1cc(Nc2ncc(C)c(N3CC(C)(CNC(=O)C4CCN(C(=O)OC(C)(C)C)CC4(F)F)C3)n2)sn1` (centres unmarked) [E284], the results for the half-inhibitory concentration (IC50) in assay [1] and in assay [2] were less than 100 nM and less than 200 nM, respectively.
The corresponding values for `Cc1cc(Nc2ncc(C)c(N3CC(C)(CNC(=O)C4CCNCC4(F)F)C3)n2)sn1` (centres unmarked) [E285] are less than 100 nM and less than 150 nM.
`Cc1cc(Nc2ncc(C)c(N3CC(C)(CNC(=O)C4CNCC4(F)F)C3)n2)sn1` (centres unmarked) [E286]: the IC50 in assay [1] and in assay [2] was less than 50 nM each time.
With `COc1ccc(CNC2(CC#N)CN(c3nc(Nc4cc(C)ns4)ncc3C)C2)cc1` [E288, 2-(3-((4-methoxybenzyl)amino)-1-(5-methyl-2-((3-methylisothiazol-5-yl)amino)pyrimidin-4-yl)azetidin-3-yl)acetonitrile], the IC50 in assay [1] and in assay [2] was less than 50 nM throughout.
Take `Cc1cc(Nc2ncc(C)c(N3CC(N)(CC#N)C3)n2)sn1` [E289, 2-(3-amino-1-(5-methyl-2-((3-methylisothiazol-5-yl)amino)pyrimidin-4-yl)azetidin-3-yl)acetonitrile]: the values for the IC50 in assay [1] and in assay [2] were less than 150 nM and less than 100 nM, respectively.
`Cc1cc(Nc2ncc(C)c(N3CC(CC#N)(NC(=O)[C@@H]4CC4(F)F)C3)n2)sn1` [E290, (S)—N-(3-(cyanomethyl)-1-(5-methyl-2-((3-methylisothiazol-5-yl)amino)pyrimidin-4-yl)azetidin-3-yl)-2,2-difluorocyclopropane-1-carboxamide]: the IC50 in assay [1] and in assay [2] was less than 10 nM throughout.
On to `Cc1cc(Nc2ncc(C)c(N3CC(CC#N)(NS(C)(=O)=O)C3)n2)sn1` [E291, N-(3-(cyanomethyl)-1-(5-methyl-2-((3-methylisothiazol-5-yl)amino)pyrimidin-4-yl)azetidin-3-yl)methanesulfonamide], for which the IC50 in assay [1] was less than 20 nM; in assay [2] it was less than 10 nM.
With `Cc1cc(N(c2ncc(C)c(N3CC(CC#N)(NS(C)(=O)=O)C3)n2)S(C)(=O)=O)sn1` [E292], the half-maximal inhibitory concentration (IC50) in assay [1] is less than 5000 nM; in assay [2] it was less than 1000 nM.
On to `Cc1cc(Nc2ncc(C)c(N3CC(CC#N)(NC(=O)NCC(F)(F)F)C3)n2)sn1` [E293, 1-(3-(cyanomethyl)-1-(5-methyl-2-((3-methylisothiazol-5-yl)amino)pyrimidin-4-yl)azetidin-3-yl)-3-(2,2,2-trifluoroethyl)urea], for which the 50% inhibitory concentration (IC50) in assay [1] and in assay [2] was less than 20 nM throughout.
As to `Cc1cc(Nc2ncc(C)c(N3CC(CC#N)(NCc4ccc(F)cc4F)C3)n2)sn1` [E295, 2-(3-((2,4-difluorobenzyl)amino)-1-(5-methyl-2-((3-methylisothiazol-5-yl)amino)pyrimidin-4-yl)azetidin-3-yl)acetonitrile], the results for the half-maximal inhibitory concentration (IC50) in assay [1] and in assay [2] were less than 20 nM and less than 10 nM, respectively.
As to `Cc1cc(Nc2ncc(C)c(N3CC(CC#N)(NC(=O)c4ccccn4)C3)n2)sn1` [E296], the IC50 in assay [1] and in assay [2] was less than 20 nM in each case.
On to `Cc1cc(Nc2ncc(C)c(N3CC(CC#N)(NC(=O)C4CCCC4)C3)n2)sn1` [E297], for which the concentration for half-maximal inhibition (IC50) in assay [1] is less than 50 nM; in assay [2], less than 20 nM.
On to `Cc1cc(Nc2ncc(C)c(N3CC(CC#N)(NC(=O)c4ccncc4)C3)n2)sn1` [E298], for which the IC50 in assay [1] and in assay [2] was less than 50 nM throughout.
As to `Cc1cc(Nc2ncc(C)c(N3CC(CC#N)(NC(=O)Cc4ccccc4F)C3)n2)sn1` [E300], the half-inhibitory concentration (IC50) in assay [1] and in assay [2] was less than 20 nM in each case.
Consider `CCS(=O)(=O)NC1(CC#N)CN(c2nc(Nc3cc(C)ns3)ncc2C)C1` [E301], for which the IC50 was less than 50 nM in assay [1] and less than 20 nM in assay [2].
The corresponding values for `CCS(=O)(=O)NC1(CC#N)CN(c2nc(N(c3cc(C)ns3)S(=O)(=O)CC)ncc2C)C1` [E302] are less than 5000 nM and less than 1000 nM.
Regarding `Cc1cc(Nc2ncc(C)c(N3CC(CC#N)(NC(=O)c4cccnc4)C3)n2)sn1` [E303], the IC50 in assay [1] was less than 20 nM; in assay [2] it was less than 30 nM.
On to `Cc1cc(Nc2ncc(C)c(N3CC(CC#N)(NC(=O)c4cccc(F)c4)C3)n2)sn1` [E304], for which the concentration for half-maximal inhibition (IC50) in assay [1] and in assay [2] was less than 10 nM each time.
As to `Cc1cnc(Nc2cnn(C)c2)nc1N1CC(CC#N)(N[C@H]2CC[C@H](NC(=O)OC(C)(C)C)C2)C1` [E305], the 50% inhibitory concentration (IC50) in assay [1] is more than 1500 nM; in assay [2], more than 2000 nM.
For `Cc1cnc(Nc2cnn(C)c2)nc1N1CC(CC#N)(N[C@H]2CC[C@H](NS(C)(=O)=O)C2)C1` [E306], in that order: less than 120 nM and less than 60 nM.
Consider `Cc1cnc(Nc2cnn(C)c2)nc1N1CC(C)(NC(=O)c2cccc(F)c2)C1` [E307], for which the values for the IC50 in assay [1] and in assay [2] were less than 20 nM and less than 100 nM, respectively.
Consider `Cc1cnc(Nc2ccc(CN(C)C)cc2)nc1N1CC(C)(NC(=O)c2cccc(F)c2)C1` [E308], for which the figures for the IC50 in assay [1] and in assay [2] were less than 100 nM and less than 50 nM, respectively.
The corresponding values for `Cc1cc(Nc2ncc(C)c(N3CC(C)(NC(=O)c4cccc(F)c4)C3)n2)sn1` [E309] are less than 10 nM and less than 20 nM.
For `Cc1cnc(Nc2cccc(CN(C)C)c2)nc1N1CC(C)(NC(=O)c2cccc(F)c2)C1` [E310], in that order: less than 20 nM and less than 50 nM.
`Cc1cnc(Nc2ccc(N3CCOCC3)cc2)nc1N1CC(C)(NC(=O)c2cccc(F)c2)C1` [E311]: the half-maximal inhibitory concentration (IC50) in assay [1] and in assay [2] was less than 50 nM throughout.
